{"source": "PubChem BioAssay AID1259409", "about": "(Chemical Carcinogenesis Research Information System (CCRIS), 2018)", "origin": "cited, not measured here", "tested_on": "rodent chemically induced tumor inhibition, incidence and multiplicity", "test": "CCRIS tumor inhibitor studies", "conditions": "Dose [Inhibitor]: 0, Route [Inhibitor]: ORAL, Species: RAT"}
{"smiles": "COc1ccc([C@@H]2CC(=O)c3c(O)cc(O[C@@H]4O[C@H](CO[C@@H]5O[C@@H](C)[C@H](O)[C@@H](O)[C@H]5O)[C@@H](O)[C@H](O)[C@H]4O)cc3O2)cc1O", "values": [{"measurement": "tumour outcome (control, treated, inhibition, significance)", "setting": "Carcinogen: 4-NITROQUINOLINE-1-OXIDE, 56-57-5, 500 PPM IN DIET FOR 10 WK BEGINNING 1 WK PRIOR TO CARCINOGEN TREATMENT (STUDY DURATION: 32 WK), Strain/Sex: F344/MALE, Target Tissue: Type of Lesion: TONGUE: CARCINOMA, Dose [Carcinogen]: 20 PPM IN DRINKING WATER FOR 8 WK, Promoter: NONE USED", "result": "13/24 (54%), 4/18 (22%), 59%, p<0.05"}, {"measurement": "tumour outcome (control, treated, inhibition, significance)", "setting": "Carcinogen: 4-NITROQUINOLINE-1-OXIDE, 56-57-5, 500 PPM IN DIET FOR 10 WK BEGINNING 1 WK PRIOR TO CARCINOGEN TREATMENT (STUDY DURATION: 32 WK), Strain/Sex: F344/MALE, Target Tissue: Type of Lesion: TONGUE: PAPILLOMA, Dose [Carcinogen]: 20 PPM IN DRINKING WATER FOR 8 WK, Promoter: NONE USED", "result": "4/24 (17%), 2/18 (11%), 35%, not significant"}, {"measurement": "tumour outcome (control, treated, inhibition, significance)", "setting": "Carcinogen: 4-NITROQUINOLINE-1-OXIDE, 56-57-5, 500 PPM IN DIET FOR 22 WK BEGINNING 1 WK POST CARCINOGEN TREATMENT (STUDY DURATION: 32 WK), Strain/Sex: F344/MALE, Target Tissue: Type of Lesion: TONGUE: CARCINOMA, Dose [Carcinogen]: 20 PPM IN DRINKING WATER FOR 8 WK, Promoter: NONE USED", "result": "13/24 (54%), 8/19 (42%), 22%, not significant"}, {"measurement": "tumour outcome (control, treated, inhibition, significance)", "setting": "Carcinogen: 4-NITROQUINOLINE-1-OXIDE, 56-57-5, 500 PPM IN DIET FOR 22 WK BEGINNING 1 WK POST CARCINOGEN TREATMENT (STUDY DURATION: 32 WK), Strain/Sex: F344/MALE, Target Tissue: Type of Lesion: TONGUE: PAPILLOMA, Dose [Carcinogen]: 20 PPM IN DRINKING WATER FOR 8 WK, Promoter: NONE USED", "result": "4/24 (17%), 1/19 (5%), 71%, not significant"}, {"measurement": "tumour outcome (control, treated, inhibition, significance)", "setting": "Carcinogen: 4-NITROQUINOLINE-1-OXIDE, 56-57-5, 1000 PPM IN DIET FOR 10 WK BEGINNING 1 WK PRIOR TO CARCINOGEN TREATMENT (STUDY DURATION: 32 WK), Strain/Sex: F344/MALE, Target Tissue: Type of Lesion: TONGUE: PAPILLOMA, Dose [Carcinogen]: 20 PPM IN DRINKING WATER FOR 8 WK, Promoter: NONE USED", "result": "8/17 (47%), 1/19 (5%), 89%, p<0.01"}, {"measurement": "tumour outcome (control, treated, inhibition, significance)", "setting": "Carcinogen: 4-NITROQUINOLINE-1-OXIDE, 56-57-5, 1000 PPM IN DIET FOR 10 WK BEGINNING 1 WK PRIOR TO CARCINOGEN TREATMENT (STUDY DURATION: 32 WK), Strain/Sex: R344/MALE, Target Tissue: Type of Lesion: TONGUE: SQUAMOUS CELL CARCINOMA, Dose [Carcinogen]: 20 PPM IN DRINKING WATER FOR 8 WK, Promoter: NONE USED", "result": "11/17 (65%), 3/19 (16%), 75%, p<0.005"}, {"measurement": "tumour outcome (control, treated, inhibition, significance)", "setting": "Carcinogen: 4-NITROQUINOLINE-1-OXIDE, 56-57-5, 1000 PPM IN DIET FOR 22 WK BEGINNING 1 WK POST CARCINOGEN TREATMENT (STUDY DURATION: 32 WK), Strain/Sex: F344/MALE, Target Tissue: Type of Lesion: TONGUE: PAPILLOMA, Dose [Carcinogen]: 20 PPM IN DRINKING WATER FOR 8 WK, Promoter: NONE USED", "result": "8/17 (47%), 2/20 (10%), 79%, p<0.05"}, {"measurement": "tumour outcome (control, treated, inhibition, significance)", "setting": "Carcinogen: 4-NITROQUINOLINE-1-OXIDE, 56-57-5, 1000 PPM IN DIET FOR 22 WK BEGINNING 1 WK POST CARCINOGEN TREATMENT (STUDY DURATION: 32 WK), Strain/Sex: F344/MALE, Target Tissue: Type of Lesion: TONGUE: SQUAMOUS CELL CARCINOMA, Dose [Carcinogen]: 20 PPM IN DRINKING WATER FOR 8 WK, Promoter: NONE USED", "result": "11/17 (65%), 5/20 (25%), 62%, p<0.05"}, {"measurement": "tumour outcome (control, treated, inhibition, significance)", "setting": "Carcinogen: AZOXYMETHANE, 25843-45-2, 0.1% IN DIET FOR 4 WK BEGINNING 1 WK PRIOR TO CARCINOGEN TREATMENT (STUDY DURATION: 32 WK), Strain/Sex: F344/MALE, Target Tissue: Type of Lesion: COLON: ADENOCARCINOMA, Dose [Carcinogen]: 15 MG/KG BW 1/WK FOR 3 WK, Promoter: NONE", "result": "70%, 5%, 93%, p<0.001"}, {"measurement": "tumour outcome (control, treated, inhibition, significance)", "setting": "Carcinogen: AZOXYMETHANE, 25843-45-2, 0.1% IN DIET FOR 28 WK BEGINNING 1 WK POST LAST CARCINOGEN DOSE (STUDY DURATION: 32 WK), Strain/Sex: F344/MALE, Target Tissue: Type of Lesion: COLON: ADENOCARCINOMA, Dose [Carcinogen]: 15 MG/KG BW 1/WK FOR 3 WK, Promoter: NONE", "result": "70%, 17%, 76%, p<0.005"}, {"measurement": "tumour outcome (control, treated, inhibition, significance)", "setting": "Carcinogen: AZOXYMETHANE, 25843-45-2, 1000 PPM IN DIET FOR 4 WK BEGINNING 1 WK PRIOR TO CARCINOGEN TREATMENT (STUDY DURATION: 32 WK), Strain/Sex: F344/MALE, Target Tissue: Type of Lesion: LARGE INTESTINE: TUMOR, Dose [Carcinogen]: 15 MG/KG BW 1/WK FOR 3 WK, Promoter: NONE USED", "result": "12/17 (71%), 3/19 (16%), 77%, p<0.001"}, {"measurement": "tumour outcome (control, treated, inhibition, significance)", "setting": "Carcinogen: AZOXYMETHANE, 25843-45-2, 1000 PPM IN DIET FOR 4 WK BEGINNING 1 WK PRIOR TO CARCINOGEN TREATMENT (STUDY DURATION: 32 WK), Strain/Sex: F344/MALE, Target Tissue: Type of Lesion: SMALL INTESTINE: TUMOR, Dose [Carcinogen]: 15 MG/KG BW 1/WK FOR 3 WK, Promoter: NONE USED", "result": "5/17 (29%), 1/19 (5%), 83%, not significant"}, {"measurement": "tumour outcome (control, treated, inhibition, significance)", "setting": "Carcinogen: AZOXYMETHANE, 25843-45-2, 1000 PPM IN DIET FOR 28 WK BEGINNING 1 WK POST CARCINOGEN TREATMENT (STUDY DURATION: 32 WK), Strain/Sex: F344/MALE, Target Tissue: Type of Lesion: LARGE INTESTINE: TUMOR, Dose [Carcinogen]: 15 MG/KG BW 1/WK FOR 3 WK, Promoter: NONE USED", "result": "12/17 (71%), 3/20 (15%), 79%, p<0.001"}]}
